Experimental data from ChEMBL document CHEMBL1146791, “Synthesis of nitrated indenoisoquinolines as topoisomerase I inhibitors” (2004).

Legend:
DU-145 = experiment: Cytotoxicity against DU-145 human prostate cancer cell line was determined; assay type: functional
[1] = target: T1, DNA topoisomerase 1 (Homo sapiens) (UniProt P11387); experiment: Inhibitory activity against DNA topoisomerase I cleavage was determined at a concentration ranging up to 10 uM; ''+++'' indicates greater activity than the parent compound 25; set-up: scale not given here
T1 sequence (whole entry): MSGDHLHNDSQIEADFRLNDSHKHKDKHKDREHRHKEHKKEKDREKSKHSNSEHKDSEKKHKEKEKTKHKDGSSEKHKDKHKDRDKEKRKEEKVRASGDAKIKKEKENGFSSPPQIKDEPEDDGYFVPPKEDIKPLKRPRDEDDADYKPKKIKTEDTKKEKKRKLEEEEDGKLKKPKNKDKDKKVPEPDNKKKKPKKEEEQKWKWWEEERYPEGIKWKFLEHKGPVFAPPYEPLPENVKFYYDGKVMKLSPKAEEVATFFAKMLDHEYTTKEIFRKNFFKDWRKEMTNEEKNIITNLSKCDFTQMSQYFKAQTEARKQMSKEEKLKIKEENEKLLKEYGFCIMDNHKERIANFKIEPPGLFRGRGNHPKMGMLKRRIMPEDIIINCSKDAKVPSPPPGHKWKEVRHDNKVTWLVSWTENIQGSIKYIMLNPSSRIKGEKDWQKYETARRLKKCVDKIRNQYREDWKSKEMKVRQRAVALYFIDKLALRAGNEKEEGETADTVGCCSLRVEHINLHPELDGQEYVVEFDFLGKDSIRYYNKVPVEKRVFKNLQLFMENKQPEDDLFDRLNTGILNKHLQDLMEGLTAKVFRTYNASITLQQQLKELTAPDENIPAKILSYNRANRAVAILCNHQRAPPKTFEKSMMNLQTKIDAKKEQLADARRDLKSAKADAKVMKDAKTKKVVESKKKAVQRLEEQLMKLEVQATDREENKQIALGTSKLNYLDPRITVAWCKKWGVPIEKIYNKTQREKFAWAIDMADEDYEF

HCT-116 = experiment: Cytotoxicity against HCT116 human colon cancer cell line was determined; assay type: functional
HOP-62 = experiment: Cytotoxicity against HOP-62 human lung cancer cell line was determined; assay type: functional
MDA-MB-435 = experiment: Cytotoxicity against MDA-MB-435 human breast cancer cell line was determined; assay type: functional
OVCAR-3 = experiment: Cytotoxicity against OVCAR-3 human ovarian cancer cell line was determined; assay type: functional
SN12C = experiment: Cytotoxicity against SN12C human renal cancer cell line was determined; assay type: functional
SF-268 = experiment: Cytotoxicity against SF-268 human CNS cancer cell line was determined; assay type: functional
UACC-62 = experiment: Cytotoxicity against UACC-62 human melanoma cancer cell line was determined; assay type: functional
[2] = target: T1, DNA topoisomerase 1 (Homo sapiens); experiment: Inhibitory activity against DNA topoisomerase I cleavage was determined at a concentration ranging up to 10uM; '+' indicates weak activity
[3] = target: T1, DNA topoisomerase 1 (Homo sapiens); experiment: Inhibitory activity against DNA topoisomerase I cleavage was determined at a concentration ranging uM camptothecin
[4] = target: T1, DNA topoisomerase 1 (Homo sapiens); experiment: Inhibitory activity against DNA topoisomerase I cleavage was determined at a concentration ranging up to 10 uM; ''+/-'' No description in the article
[5] = target: T1, DNA topoisomerase 1 (Homo sapiens); experiment: Inhibitory activity against DNA topoisomerase I cleavage was determined at a concentration ranging up to 10 uM; NT- Not tested
[6] = target: T1, DNA topoisomerase 1 (Homo sapiens); experiment: Inhibitory activity against DNA topoisomerase I cleavage was determined at a concentration ranging up to 10 uM

Row | Compound | GI50 (DU-145) | Activity [1] | GI50 (HCT-116) | GI50 (HOP-62) | GI50 (MDA-MB-435) | GI50 (OVCAR-3) | GI50 (SN12C) | GI50 (SF-268) | GI50 (UACC-62) | Activity [2] | Activity [3] | Activity [4] | Activity [5] | Activity [6]
1 | O=C1c2cc3c(cc2-c2c1c1ccc([N+](=O)[O-])cc1c(=O)n2CCCCl)OCO3 | 98 nM | ++ | 2400 nM | 410 nM | 1820 nM | 9120 nM | 132 nM | 148 nM | 229 nM | – | – | – | – | –
2 | O=C1c2cc3c(cc2[C@@H]2[C@H]1c1ccc([N+](=O)[O-])cc1C(=O)N2CCCCl)OCO3 | < 10 nM | – | < 10 nM | < 10 nM | < 10 nM | < 10 nM | < 10 nM | < 10 nM | < 10 nM | weak activity | – | – | – | –
3 | COc1cc2c3c(n(CCCN)c(=O)c2cc1OC)-c1cc2c(cc1C3=O)OCO2 | – | ++ | – | – | – | – | – | – | – | – | – | – | – | –
4 | O=C1c2cc3c(cc2[C@@H]2[C@H]1c1ccc([N+](=O)[O-])cc1C(=O)N2CCCBr)OCO3 | < 10 nM | – | < 10 nM | < 10 nM | < 10 nM | < 10 nM | < 10 nM | < 10 nM | < 10 nM | weak activity | – | – | – | –
5 | O=C1c2ccccc2-c2c1c1ccc([N+](=O)[O-])cc1c(=O)n2CCCCl | 40700 nM | – | 3630 nM | 43700 nM | 31600 nM | 4900 nM | 26900 nM | 23400 nM | 20400 nM | – | – | – | – | –
6 | [N-]=[N+]=NCCCn1c2c(c3ccc([N+](=O)[O-])cc3c1=O)C(=O)c1ccccc1-2 | > 100000 nM | – | 8130 nM | > 100000 nM | > 100000 nM | – | 72400 nM | 79400 nM | 44700 nM | – | – | – | – | –
7 | CN1C(=O)c2cc([N+](=O)[O-])ccc2[C@H]2C(=O)c3cc4c(cc3[C@H]21)OCO4 | 50 nM | ++ | 14 nM | 158 nM | 107 nM | 30 nM | 33 nM | 24 nM | 26 nM | – | – | – | – | –
8 | [N-]=[N+]=NCCCn1c2c(c3ccc([N+](=O)[O-])cc3c1=O)C(=O)c1cc3c(cc1-2)OCO3 | < 10 nM | – | < 10 nM | < 10 nM | < 10 nM | < 10 nM | < 10 nM | < 10 nM | < 10 nM | – | +++ | – | – | –
9 | O=C1c2ccccc2-c2c1c1ccccc1c(=O)n2CCCBr | – | – | – | – | – | – | – | 4610 nM | – | – | – | +/- | – | –
10 | [N-]=[N+]=NCCCn1c2c(c3ccccc3c1=O)C(=O)c1ccccc1-2 | 44700 nM | – | 4900 nM | 7590 nM | 7760 nM | 7940 nM | 25100 nM | – | 19500 nM | – | – | – | – | –
11 | NCCCn1c2c(c3ccccc3c1=O)C(=O)c1ccccc1-2 | 220 nM | ++ | 180 nM | – | 780 nM | 1380 nM | 160 nM | – | 260 nM | – | – | – | – | –
12 | O=C1c2ccccc2-c2c1c1ccc([N+](=O)[O-])cc1c(=O)n2CCCBr | > 100000 nM | – | 3450 nM | – | > 100000 nM | > 100000 nM | > 100000 nM | > 100000 nM | > 100000 nM | – | – | – | 0 | –
13 | NCCCn1c2c(c3ccc([N+](=O)[O-])cc3c1=O)C(=O)c1cc3c(cc1-2)OCO3 | < 10 nM | – | < 10 nM | < 10 nM | 25 nM | 302 nM | < 10 nM | < 10 nM | 17 nM | – | +++ | – | – | –
14 | NCCCn1c2c(c3ccccc3c1=O)C(=O)c1cc3c(cc1-2)OCO3 | – | – | – | – | – | – | – | – | – | weak activity | – | – | – | –
15 | COc1cc2c3c(n(C)c(=O)c2cc1OC)-c1cc2c(cc1C3=O)OCO2 | 37000 nM | – | 35000 nM | 1300 nM | 96000 nM | – | 68000 nM | – | 4200 nM | – | – | – | – | –
16 | NCCCn1c2c(c3ccc([N+](=O)[O-])cc3c1=O)C(=O)c1ccccc1-2 | 148 nM | – | 85 nM | 275 nM | – | – | 102 nM | 302 nM | 372 nM | – | – | – | – | –
17 | Nc1ccc2c3c(n(CCCCl)c(=O)c2c1)-c1cc2c(cc1C3=O)OCO2 | – | – | – | – | > 100000 nM | > 100000 nM | > 100000 nM | > 100000 nM | > 100000 nM | – | – | – | – | 0
18 | COc1cc2c(cc1OC)[C@H]1C(=O)c3cc4c(cc3[C@H]1N(CCCBr)C2=O)OCO4 | 30 nM | – | 70 nM | 120 nM | 150 nM | 400 nM | 30 nM | – | 50 nM | weak activity | – | – | – | –
